Experimental findings from patent publication US6544989B2, “Benzazoles: benzoxazole, benzthiazole and benzimidazole derivatives” (Syngenta Limited, priority 1998, dated 2003) are described below.

The first series deals with Pyricularia oryzae.
Test: not given
The series is classed as in vivo. To be noted: METHOD 2 (unbanded).
As for `Cc1nc2cc(CC(=O)Nc3snc(C)c3Br)ccc2o1` [2(A4)], the “PYRIOR 1 d Prot/Foir PRCO” value was determined as 99.
With `Cc1nc2cc(CC(=O)Nc3snc(C)c3C#N)ccc2o1` [2(A5)], the “PYRIOR 1 d Prot/Foir PRCO” value was 31.
Take `CCc1nsc(NC(=O)Cc2ccc3oc(C)nc3c2)c1Cl` [2(A8)]: the “PYRIOR 1 d Prot/Foir PRCO” value was found to be 75.
The same measure, in the same setting: the figure for `Cc1nc2ccc(CC(=O)Nc3snc(C)c3Cl)cc2[nH]1` [2(A43)] is 48; for `CCCc1nc2cc(CC(=O)Nc3snc(C)c3Cl)ccc2s1` [4(A13)] it is 100.
On the same count and under the same terms, the figure for `Cc1nsc(NC(=O)Cc2ccc3nc(C(C)(C)C)[nH]c3c2)c1Cl` [9(A43)] is 26.
On the same count and under the same terms, the figure for `Cc1cc(NC(=O)Cc2ccc3oc(CC(C)(C)C)nc3c2)sn1` [15(A1)] is 87; for `Cc1nsc(NC(=O)Cc2ccc3oc(CC(C)(C)C)nc3c2)c1Br` [15(A4)] it is 98; for `Cc1nsc(NC(=O)Cc2ccc3oc(CC(C)(C)C)nc3c2)c1C#N` [15(A5)] it is 81.

The next series relates to Uncinula necator. As to the kind of experiment: Fungicidal test, Uncinula necator (UNCINE) on vines, PRCO. To be noted: METHOD 2 (unbanded). The series is classed as in vivo.
As to `Cc1nc2cc(CC(=O)Nc3snc(C)c3Br)ccc2o1` [2(A4)], the “UNCINE 1 d Prot/Foir PRCO” value worked out at 90.
For the molecule `Cc1nc2cc(CC(=O)Nc3snc(C)c3C#N)ccc2o1` [2(A5)], the “UNCINE 1 d Prot/Foir PRCO” value stood at 3.
The same measure, in the same setting: the figure for `CCc1nsc(NC(=O)Cc2ccc3oc(C)nc3c2)c1Cl` [2(A8)] is 74; for `Cc1nc2ccc(CC(=O)Nc3snc(C)c3Cl)cc2[nH]1` [2(A43)] it is 11.
Consider `CCCc1nc2cc(CC(=O)Nc3snc(C)c3Cl)ccc2s1` [4(A13)], for which the “UNCINE 1 d Prot/Foir PRCO” value is on record as 100.
On the same count and under the same terms, the figure for `Cc1nsc(NC(=O)Cc2ccc3nc(C(C)(C)C)[nH]c3c2)c1Cl` [9(A43)] is 7; for `Cc1cc(NC(=O)Cc2ccc3oc(CC(C)(C)C)nc3c2)sn1` [15(A1)] it is 100.
Same read-out and setting: with `Cc1nsc(NC(=O)Cc2ccc3oc(CC(C)(C)C)nc3c2)c1Br` [15(A4)] the figure was 100; with `Cc1nsc(NC(=O)Cc2ccc3oc(CC(C)(C)C)nc3c2)c1C#N` [15(A5)], 83.

In a further series the test system is Meloidogyne incognita. As to the kind of experiment: Nematode test, J2 infective juveniles of Meloidogyne incognita, mortality. To be noted: 12.5 ppm; J2 infective juveniles suspended in solution; mortality after three days.
For `Cc1nc2cc(CC(=O)Nc3snc(C)c3Br)ccc2o1` [2(A4)], the “MELGIN = Meloidogyne incognita, grading of mortality (score)” value (from here on “MELGIN = Meloidogyne incognita, grading”) is listed as 0 (0 indicates less than 40% mortality).
Still for that read-out and setting: the figure for `Cc1nc2cc(CC(=O)Nc3snc(C)c3C#N)ccc2o1` [2(A5)] is 5 (5 indicates 40-79% mortality); for `CCc1nsc(NC(=O)Cc2ccc3oc(C)nc3c2)c1Cl` [2(A8)] it is 0 (0 indicates less than 40% mortality); for `Cc1nc2ccc(CC(=O)Nc3snc(C)c3Cl)cc2[nH]1` [2(A43)] it is 5 (5 indicates 40-79% mortality).
In the case of `CCCc1nc2cc(CC(=O)Nc3snc(C)c3Cl)ccc2s1` [4(A13)], the “MELGIN = Meloidogyne incognita, grading” value is 0 (0 indicates less than 40% mortality).
On the same count and under the same terms, the figure for `Cc1nsc(NC(=O)Cc2ccc3nc(C(C)(C)C)[nH]c3c2)c1Cl` [9(A43)] is 0 (0 indicates less than 40% mortality); for `Cc1cc(NC(=O)Cc2ccc3oc(CC(C)(C)C)nc3c2)sn1` [15(A1)] it is 0 (0 indicates less than 40% mortality).
`Cc1nsc(NC(=O)Cc2ccc3oc(CC(C)(C)C)nc3c2)c1Br` [15(A4)]: the “MELGIN = Meloidogyne incognita, grading” value is listed as 0 (0 indicates less than 40% mortality).
Still for that read-out and setting: with `Cc1nsc(NC(=O)Cc2ccc3oc(CC(C)(C)C)nc3c2)c1C#N` [15(A5)] the figure was 0 (0 indicates less than 40% mortality).

The next series relates to Septoria nodorum. As to the kind of experiment: Fungicidal test, Septoria nodorum (LEPTNO) on wheat, PRCO. The series is classed as in vivo. As to conditions: METHOD 2 (unbanded).
With `Cc1nc2cc(CC(=O)Nc3snc(C)c3Br)ccc2o1` [2(A4)], the “LEPTNO 1 d Prot/Foir PRCO” value is −12.
Still for that read-out and setting: the figure for `Cc1nc2cc(CC(=O)Nc3snc(C)c3C#N)ccc2o1` [2(A5)] is −2; for `CCc1nsc(NC(=O)Cc2ccc3oc(C)nc3c2)c1Cl` [2(A8)] it is 9.
The same measure, in the same setting: the figure for `Cc1nc2ccc(CC(=O)Nc3snc(C)c3Cl)cc2[nH]1` [2(A43)] is −3; for `CCCc1nc2cc(CC(=O)Nc3snc(C)c3Cl)ccc2s1` [4(A13)] it is 20.
The same measure, in the same setting: with `Cc1nsc(NC(=O)Cc2ccc3nc(C(C)(C)C)[nH]c3c2)c1Cl` [9(A43)] the figure was −4; with `Cc1cc(NC(=O)Cc2ccc3oc(CC(C)(C)C)nc3c2)sn1` [15(A1)], 4.
`Cc1nsc(NC(=O)Cc2ccc3oc(CC(C)(C)C)nc3c2)c1Br` [15(A4)]: the “LEPTNO 1 d Prot/Foir PRCO” value was 19.
Same read-out and setting: with `Cc1nsc(NC(=O)Cc2ccc3oc(CC(C)(C)C)nc3c2)c1C#N` [15(A5)] the figure was −2.

For a further series, the system named is Venturia inaequalis. As to the kind of experiment: Fungicidal test, Venturia inaequalis (VENTIN) on apples, PRCO. The format is in vivo. To be noted: METHOD 2 (unbanded).
In the case of `Cc1nc2cc(CC(=O)Nc3snc(C)c3Br)ccc2o1` [2(A4)], the “VENTIN 1 d Prot/Foir PRCO” value amounted to 92.
The same measure, in the same setting: with `Cc1nc2cc(CC(=O)Nc3snc(C)c3C#N)ccc2o1` [2(A5)] the figure was 19; with `CCc1nsc(NC(=O)Cc2ccc3oc(C)nc3c2)c1Cl` [2(A8)], 8; with `Cc1nc2ccc(CC(=O)Nc3snc(C)c3Cl)cc2[nH]1` [2(A43)], 14.
Same read-out and setting: the figure for `CCCc1nc2cc(CC(=O)Nc3snc(C)c3Cl)ccc2s1` [4(A13)] is 55; for `Cc1nsc(NC(=O)Cc2ccc3nc(C(C)(C)C)[nH]c3c2)c1Cl` [9(A43)] it is 38.
Same read-out and setting: with `Cc1cc(NC(=O)Cc2ccc3oc(CC(C)(C)C)nc3c2)sn1` [15(A1)] the figure was 54; with `Cc1nsc(NC(=O)Cc2ccc3oc(CC(C)(C)C)nc3c2)c1Br` [15(A4)], 54.
Turning to `Cc1nsc(NC(=O)Cc2ccc3oc(CC(C)(C)C)nc3c2)c1C#N` [15(A5)], the “VENTIN 1 d Prot/Foir PRCO” value came out at 3.

For the next series, the system named is Erysiphe graminis f.sp. tritici. Nature of the series: Fungicidal test, Erysiphe graminis f.sp. tritici (ERYSGT) on wheat, PRCO. The series is classed as in vivo. As to conditions: 1 d Prot/Foir; METHOD 2 (unbanded).
Consider `Cc1nc2cc(CC(=O)Nc3snc(C)c3Br)ccc2o1` [2(A4)], for which the “ERYSGT 1 d Prot/Foir PRCO” value is on record as 97.
Still for that read-out and setting: with `Cc1nc2cc(CC(=O)Nc3snc(C)c3C#N)ccc2o1` [2(A5)] the figure was 18; with `CCc1nsc(NC(=O)Cc2ccc3oc(C)nc3c2)c1Cl` [2(A8)], 54.
On to `Cc1nc2ccc(CC(=O)Nc3snc(C)c3Cl)cc2[nH]1` [2(A43)], for which the “ERYSGT 1 d Prot/Foir PRCO” value is recorded as 20.
On the same count and under the same terms, the figure for `CCCc1nc2cc(CC(=O)Nc3snc(C)c3Cl)ccc2s1` [4(A13)] is 100; for `Cc1nsc(NC(=O)Cc2ccc3nc(C(C)(C)C)[nH]c3c2)c1Cl` [9(A43)] it is 7.
On the same count and under the same terms, the figure for `Cc1cc(NC(=O)Cc2ccc3oc(CC(C)(C)C)nc3c2)sn1` [15(A1)] is 43.
Consider `Cc1nsc(NC(=O)Cc2ccc3oc(CC(C)(C)C)nc3c2)c1Br` [15(A4)], for which the “ERYSGT 1 d Prot/Foir PRCO” value worked out at 91.
Same read-out and setting: the figure for `Cc1nsc(NC(=O)Cc2ccc3oc(CC(C)(C)C)nc3c2)c1C#N` [15(A5)] is 15.

Another series relates to Puccinia recondita. As to the kind of experiment: Fungicidal test, Puccinia recondita (PUCCRT) on wheat, PRCO. The series is classed as in vivo. As to conditions: METHOD 2 (unbanded).
On to `Cc1nc2cc(CC(=O)Nc3snc(C)c3Br)ccc2o1` [2(A4)], for which the “PUCCRT 1 d Prot/Foir PRCO” value is listed as 100.
On the same count and under the same terms, with `Cc1nc2cc(CC(=O)Nc3snc(C)c3C#N)ccc2o1` [2(A5)] the figure was 28.
On the same count and under the same terms, with `CCc1nsc(NC(=O)Cc2ccc3oc(C)nc3c2)c1Cl` [2(A8)] the figure was 100; with `Cc1nc2ccc(CC(=O)Nc3snc(C)c3Cl)cc2[nH]1` [2(A43)], 7; with `CCCc1nc2cc(CC(=O)Nc3snc(C)c3Cl)ccc2s1` [4(A13)], 100.
For `Cc1nsc(NC(=O)Cc2ccc3nc(C(C)(C)C)[nH]c3c2)c1Cl` [9(A43)], the “PUCCRT 1 d Prot/Foir PRCO” value came out at 25.
Still for that read-out and setting: the figure for `Cc1cc(NC(=O)Cc2ccc3oc(CC(C)(C)C)nc3c2)sn1` [15(A1)] is 96.
As to `Cc1nsc(NC(=O)Cc2ccc3oc(CC(C)(C)C)nc3c2)c1Br` [15(A4)], the “PUCCRT 1 d Prot/Foir PRCO” value was 99.
On the same count and under the same terms, the figure for `Cc1nsc(NC(=O)Cc2ccc3oc(CC(C)(C)C)nc3c2)c1C#N` [15(A5)] is 84.

The test system of another series is Musca domestica.
Test: not given
As to conditions: 500 ppm by weight; knockdown assessed 15 minutes after treatment.
For `Cc1nc2cc(CC(=O)Nc3snc(C)c3Br)ccc2o1` [2(A4)], the “MUSCDO AC = Musca domestica (knockdown), score” value is on record as 5 (5 indicates 40-79% mortality).
Same read-out and setting: the figure for `Cc1nc2ccc(CC(=O)Nc3snc(C)c3Cl)cc2[nH]1` [2(A43)] is 0 (0 indicates less than 40% mortality).
Still for that read-out and setting: with `CCCc1nc2cc(CC(=O)Nc3snc(C)c3Cl)ccc2s1` [4(A13)] the figure was 9 (9 indicates 80-100% mortality).
On the same count and under the same terms, with `Cc1nsc(NC(=O)Cc2ccc3nc(C(C)(C)C)[nH]c3c2)c1Cl` [9(A43)] the figure was 0 (0 indicates less than 40% mortality); with `Cc1cc(NC(=O)Cc2ccc3oc(CC(C)(C)C)nc3c2)sn1` [15(A1)], 5 (5 indicates 40-79% mortality); with `Cc1nsc(NC(=O)Cc2ccc3oc(CC(C)(C)C)nc3c2)c1Br` [15(A4)], 9 (9 indicates 80-100% mortality).

The subject of another series is Phytophthora infestans lycopersici.
Test: not given
As to conditions: METHOD 2 (unbanded). The series is classed as in vivo.
On to `Cc1nc2cc(CC(=O)Nc3snc(C)c3Br)ccc2o1` [2(A4)], for which the “PHYTIN 1 d Prot/Foir PRCO” value worked out at 100.
Still for that read-out and setting: the figure for `Cc1nc2cc(CC(=O)Nc3snc(C)c3C#N)ccc2o1` [2(A5)] is 19; for `CCc1nsc(NC(=O)Cc2ccc3oc(C)nc3c2)c1Cl` [2(A8)] it is 74.
On the same count and under the same terms, with `Cc1nc2ccc(CC(=O)Nc3snc(C)c3Cl)cc2[nH]1` [2(A43)] the figure was 18; with `Cc1nsc(NC(=O)Cc2ccc3nc(C(C)(C)C)[nH]c3c2)c1Cl` [9(A43)], 0.
In the case of `Cc1cc(NC(=O)Cc2ccc3oc(CC(C)(C)C)nc3c2)sn1` [15(A1)], the “PHYTIN 1 d Prot/Foir PRCO” value was found to be 100.
The same measure, in the same setting: the figure for `Cc1nsc(NC(=O)Cc2ccc3oc(CC(C)(C)C)nc3c2)c1Br` [15(A4)] is 100; for `Cc1nsc(NC(=O)Cc2ccc3oc(CC(C)(C)C)nc3c2)c1C#N` [15(A5)] it is 45.
